Test results: US20230148214A1, “INDAZOLES AND AZAINDAZOLES AS LRRK2 INHIBITORS” (ESCAPE Bio, Inc., priority 2020, published 2023)
pIC50: −log10 of the molar value.

Target: T1, LRRK2 WT (Homo sapiens, UniProt Q5S007)
T1 construct: purchased Life Technologies PR8604B
Assay: LRRK2 Kinase Activity Assay (LanthaScreen TR-FRET), wild type
Format: biochemical
Conditions: recombinant wild type LRRK2, 25 μM ATP, 400 nM LRRKtide, 60 min; class symbols
Procedure: LRRK2 kinase activity was measured using a LanthaScreen™ Kinase Activity Assay from ThermoFisher Scientific. Recombinant wild type or G2019S-LRRK2 protein (Life Technologies, PR8604B or PV4881, respectively), was incubated with a fluorescein-labeled peptide substrate called LRRKtide that is based upon ezrin/radixin/moesin (ERM) (Life Technologies, PV4901) in the presence of ATP and serially diluted compound. […] Compound-dependent inhibition of the TR-FRET signal was used to generate a concentration-response curve for IC50 determination.
After 60 min incubation at room temperature, the reaction was stopped by addition of 10 μL of 2×stop solution containing a final concentration of 2 nM anti-pERM antibody and 10 mM EDTA.

T1 sequence (Q5S007 whole entry): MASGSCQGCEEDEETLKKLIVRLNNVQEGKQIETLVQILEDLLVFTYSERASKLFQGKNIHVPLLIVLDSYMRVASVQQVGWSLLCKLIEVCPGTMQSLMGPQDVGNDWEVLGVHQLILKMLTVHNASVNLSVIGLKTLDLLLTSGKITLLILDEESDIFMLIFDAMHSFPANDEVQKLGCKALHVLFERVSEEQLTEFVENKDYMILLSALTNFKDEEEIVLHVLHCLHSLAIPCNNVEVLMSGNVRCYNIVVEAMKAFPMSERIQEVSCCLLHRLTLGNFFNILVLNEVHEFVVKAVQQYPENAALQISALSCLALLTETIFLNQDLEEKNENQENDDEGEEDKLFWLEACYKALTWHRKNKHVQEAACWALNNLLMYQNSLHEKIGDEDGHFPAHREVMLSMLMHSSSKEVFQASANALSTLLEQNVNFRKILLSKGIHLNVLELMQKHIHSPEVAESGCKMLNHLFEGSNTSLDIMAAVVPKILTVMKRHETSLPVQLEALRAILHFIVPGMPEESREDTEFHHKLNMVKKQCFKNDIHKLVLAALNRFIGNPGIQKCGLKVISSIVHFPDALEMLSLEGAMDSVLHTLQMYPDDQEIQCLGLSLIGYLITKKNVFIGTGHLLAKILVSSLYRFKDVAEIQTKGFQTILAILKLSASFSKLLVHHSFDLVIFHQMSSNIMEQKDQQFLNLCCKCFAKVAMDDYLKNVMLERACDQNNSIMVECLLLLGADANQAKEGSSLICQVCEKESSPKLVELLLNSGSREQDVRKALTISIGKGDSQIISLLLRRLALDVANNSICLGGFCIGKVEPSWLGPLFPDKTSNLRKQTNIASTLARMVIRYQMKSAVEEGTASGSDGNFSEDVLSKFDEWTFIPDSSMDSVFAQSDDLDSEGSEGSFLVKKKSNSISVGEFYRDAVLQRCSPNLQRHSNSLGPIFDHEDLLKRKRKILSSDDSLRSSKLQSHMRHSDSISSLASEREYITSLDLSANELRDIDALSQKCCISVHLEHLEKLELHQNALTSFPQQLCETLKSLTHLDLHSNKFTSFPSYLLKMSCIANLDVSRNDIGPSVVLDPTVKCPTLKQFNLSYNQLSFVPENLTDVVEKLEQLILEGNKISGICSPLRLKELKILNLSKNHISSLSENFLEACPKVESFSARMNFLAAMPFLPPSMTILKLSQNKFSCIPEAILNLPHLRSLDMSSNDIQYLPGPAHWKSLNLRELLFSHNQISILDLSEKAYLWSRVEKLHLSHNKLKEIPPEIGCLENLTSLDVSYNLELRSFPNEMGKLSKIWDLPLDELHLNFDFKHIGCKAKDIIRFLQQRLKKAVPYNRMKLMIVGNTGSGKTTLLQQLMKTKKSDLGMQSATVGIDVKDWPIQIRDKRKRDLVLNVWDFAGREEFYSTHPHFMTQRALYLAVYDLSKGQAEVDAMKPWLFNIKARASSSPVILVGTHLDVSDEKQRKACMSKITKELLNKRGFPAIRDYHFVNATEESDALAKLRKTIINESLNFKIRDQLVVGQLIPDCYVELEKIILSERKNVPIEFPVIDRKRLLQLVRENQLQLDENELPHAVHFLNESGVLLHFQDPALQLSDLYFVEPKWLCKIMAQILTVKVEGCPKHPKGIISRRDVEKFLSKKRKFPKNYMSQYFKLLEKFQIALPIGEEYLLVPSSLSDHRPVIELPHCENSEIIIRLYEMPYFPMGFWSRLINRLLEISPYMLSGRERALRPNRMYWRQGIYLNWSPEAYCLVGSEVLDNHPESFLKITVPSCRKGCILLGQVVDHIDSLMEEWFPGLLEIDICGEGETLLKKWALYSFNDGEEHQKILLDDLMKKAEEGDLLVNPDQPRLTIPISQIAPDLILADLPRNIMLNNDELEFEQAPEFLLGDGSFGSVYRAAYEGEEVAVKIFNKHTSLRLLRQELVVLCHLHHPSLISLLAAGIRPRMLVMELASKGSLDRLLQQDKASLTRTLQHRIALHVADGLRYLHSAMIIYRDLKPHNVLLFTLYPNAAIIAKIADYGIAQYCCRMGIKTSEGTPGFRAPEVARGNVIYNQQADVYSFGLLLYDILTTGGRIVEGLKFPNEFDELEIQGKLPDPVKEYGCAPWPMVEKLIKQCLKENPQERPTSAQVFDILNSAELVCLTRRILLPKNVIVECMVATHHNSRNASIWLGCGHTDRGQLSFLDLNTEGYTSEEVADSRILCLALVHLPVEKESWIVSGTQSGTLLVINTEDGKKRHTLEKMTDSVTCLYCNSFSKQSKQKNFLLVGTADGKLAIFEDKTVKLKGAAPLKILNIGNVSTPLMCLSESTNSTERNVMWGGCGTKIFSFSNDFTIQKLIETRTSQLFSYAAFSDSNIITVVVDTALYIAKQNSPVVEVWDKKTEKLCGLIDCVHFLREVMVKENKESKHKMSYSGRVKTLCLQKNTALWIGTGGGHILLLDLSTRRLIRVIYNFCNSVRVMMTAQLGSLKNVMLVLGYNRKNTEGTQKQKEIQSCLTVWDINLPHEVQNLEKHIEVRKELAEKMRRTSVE

## N#Cc1cc2c(nc1Cl)[C@@H](Oc1ccc3[nH]nc(-c4cnco4)c3c1)CCC2 (single isomer, unassigned) [177, enantiomer 2, 2-Chloro-8-((3-(oxazol-5-yl)-1H-indazol-5-yl)oxy)-5,6,7,8-tetrahydroquinoline-3-carbonitrile]
  pIC50: > 7.00

## N#Cc1cc2c(nc1Cl)[C@@H](Oc1ccc3[nH]nc(-c4cnoc4)c3c1)CCC2 (single isomer, unassigned) [178, enantiomer 2, 2-Chloro-8-[[3-(1,2-oxazol-4-yl)-1H-indazol-5-yl]oxy]-5,6,7,8-tetrahydroquinoline-3-carbonitrile]
  pIC50: > 7.00

## N#Cc1cc2c(cc1F)[C@@H](Oc1ccc3[nH]nc(-c4cnco4)c3c1)CCC2 (single isomer, unassigned) [180, enantiomer 2, 3-Fluoro-5-[[3-(1,3-oxazol-5-yl)-1H-indazol-5-yl]oxy]-5,6,7,8-tetrahydronaphthalene-2-carbonitrile]
  pIC50: > 7.00

## N#Cc1cnc2c(n1)CC[C@@H]2Oc1ccc2[nH]nc(-c3cnco3)c2c1 (single isomer, unassigned) [182, enantiomer 2, 5-((3-(Oxazol-5-yl)-1H-indazol-5-yl)oxy)-6,7-dihydro-5H-cyclopenta[b]pyrazine-2-carbonitrile]
  pIC50: > 7.00

## N#Cc1cnc2c(c1)CCC[C@@H]2Oc1ccc2[nH]nc(-c3cnoc3)c2c1 (single isomer, unassigned) [Example 2, enantiomer 2, 8-((3-(Isoxazol-4-yl)-1H-indazol-5-yl)oxy)-5,6,7,8-tetrahydroquinoline-3-carbonitrile]
  pIC50: > 7.00

## N#Cc1ccc2c(c1)CCC2Oc1ccc2[nH]nc(-c3cnco3)c2c1 (single isomer, unassigned) [Example 3, enantiomer 2, 1-((3-(Oxazol-5-yl)-1H-indazol-5-yl)oxy)-2,3-dihydro-1H-indene-5-carbonitrile]
  pIC50: > 7.00

## N#Cc1ccc2c(c1)CC[C@@H]2Oc1ccc2[nH]nc(-c3cnn(C(F)F)c3)c2c1 (single isomer, unassigned) [Example 4, enantiomer 2, 1-((3-(1-(Difluoromethyl)-1H-pyrazol-4-yl)-1H-indazol-5-yl)oxy)-2,3-dihydro-1H-indene-5-carbonitrile]
  pIC50: > 7.00

## N#Cc1ccc2c(c1)CC[C@@H]2Oc1ccc2[nH]nc(-c3cnoc3)c2c1 (single isomer, unassigned) [Example 5, enantiomer 2, 1-((3-(Isoxazol-4-yl)-1H-indazol-5-yl)oxy)-2,3-dihydro-1H-indene-5-carbonitrile]
  pIC50: > 7.00

## N#Cc1ccc2c(c1)CC[C@@H]2Nc1ccc2[nH]nc(-c3cnoc3)c2c1 (single isomer, unassigned) [Example 8, enantiomer 2, 1-((3-(Isoxazol-4-yl)-1H-indazol-5-yl)amino)-2,3-dihydro-1H-indene-5-carbonitrile]
  pIC50: > 7.00

## N#Cc1ccc2c(c1)CC[C@@H]2Nc1ccc2[nH]nc(-c3cnco3)c2c1 (single isomer, unassigned) [Example 9, enantiomer 2, 1-((3-(Oxazol-5-yl)-1H-indazol-5-yl)amino)-2,3-dihydro-1H-indene-5-carbonitrile]
  pIC50: > 7.00

## N#Cc1ccc2c(c1)CC[C@@H]2Nc1ccc2[nH]nc(-c3ccoc3)c2c1 (single isomer, unassigned) [Example 11, enantiomer 2, 1-((3-(Furan-3-yl)-1H-indazol-5-yl)amino)-2,3-dihydro-1H-indene-5-carbonitrile]
  pIC50: > 7.00

## N#Cc1ccc2c(c1)CC[C@@H]2Nc1ccc2[nH]nc(-c3cnn(C(F)F)c3)c2c1 (single isomer, unassigned) [Example 12, enantiomer 2, 1-((3-(1-(Difluoromethyl)-1H-pyrazol-4-yl)-1H-indazol-5-yl)amino)-2,3-dihydro-1H-indene-5-carbonitrile]
  pIC50: > 7.00

## Cc1cc(C#N)cc2c1[C@@H](Oc1ccc3[nH]nc(-c4cnco4)c3c1)CC2 (single isomer, unassigned) [Example 14, enantiomer 2, 7-Methyl-1-((3-(oxazol-5-yl)-1H-indazol-5-yl)oxy)-2,3-dihydro-1H-indene-5-carbonitrile]
  pIC50: > 7.00
